The source made the active and inactive calls. The calls are words filed in the database; no cut-off is given here.
Key:
[1] = biological target: T1, Ubiquitin-like modifier-activating enzyme 1 (Homo sapiens) (UniProt P22314); assay: Inhibition of ubiquitin displacement on His6-tagged E2 enzyme from His6-tagged UBA1 (unknown origin) at 10 uM after 1.5 hr by SDS-PAGE analysis
T1 sequence (whole entry): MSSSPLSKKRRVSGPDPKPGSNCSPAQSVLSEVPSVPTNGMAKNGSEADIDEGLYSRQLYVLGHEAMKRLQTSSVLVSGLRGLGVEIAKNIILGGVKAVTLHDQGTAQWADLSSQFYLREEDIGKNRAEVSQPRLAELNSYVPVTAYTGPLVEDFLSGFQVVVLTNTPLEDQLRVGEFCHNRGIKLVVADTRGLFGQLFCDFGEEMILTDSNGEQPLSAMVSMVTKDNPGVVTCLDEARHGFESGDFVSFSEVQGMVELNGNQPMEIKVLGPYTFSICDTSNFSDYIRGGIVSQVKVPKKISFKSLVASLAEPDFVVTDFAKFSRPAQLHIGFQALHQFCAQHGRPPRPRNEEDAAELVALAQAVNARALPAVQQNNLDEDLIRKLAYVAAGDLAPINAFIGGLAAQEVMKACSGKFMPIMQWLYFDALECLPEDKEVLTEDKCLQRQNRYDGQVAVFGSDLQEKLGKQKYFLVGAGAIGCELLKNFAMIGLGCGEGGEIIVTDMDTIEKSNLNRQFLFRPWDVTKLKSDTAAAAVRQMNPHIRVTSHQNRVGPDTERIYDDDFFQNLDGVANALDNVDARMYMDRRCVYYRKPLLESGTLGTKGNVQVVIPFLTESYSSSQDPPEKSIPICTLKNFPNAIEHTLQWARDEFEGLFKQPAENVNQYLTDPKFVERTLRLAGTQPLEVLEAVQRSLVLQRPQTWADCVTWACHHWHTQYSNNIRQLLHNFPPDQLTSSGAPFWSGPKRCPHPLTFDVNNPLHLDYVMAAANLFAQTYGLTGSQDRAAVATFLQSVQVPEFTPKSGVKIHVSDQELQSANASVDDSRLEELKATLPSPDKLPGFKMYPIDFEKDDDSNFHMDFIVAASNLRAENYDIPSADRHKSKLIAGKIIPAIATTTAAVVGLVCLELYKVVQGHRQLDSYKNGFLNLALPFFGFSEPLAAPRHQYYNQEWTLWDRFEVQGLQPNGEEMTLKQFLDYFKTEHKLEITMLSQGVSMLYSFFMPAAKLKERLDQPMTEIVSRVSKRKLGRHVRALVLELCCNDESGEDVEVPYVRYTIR

[2] = tested on: MCF7; assay: Cytotoxicity against Homo sapiens (human) MCF7 cells after 48 hr by SRB assay; assay type: functional; conditions: MCF7, 48 h
[3] = tested on: SNB-75; assay: Cytotoxicity against Homo sapiens (human) SNB75 cells after 48 hr by SRB assay; assay type: functional; conditions: SNB-75, 48 h
[4] = tested on: COLO 205; assay: Cytotoxicity against Homo sapiens (human) COLO205 cells after 48 hr by SRB assay; assay type: functional; conditions: COLO 205, 48 h
[5] = tested on: OVCAR-3; assay: Cytotoxicity against Homo sapiens (human) OVCAR3 cells after 48 hr by SRB assay; assay type: functional; conditions: OVCAR-3, 48 h
[6] = tested on: SF-268; assay: Cytotoxicity against Homo sapiens (human) SF268 cells after 48 hr by SRB assay; assay type: functional; conditions: SF-268, 48 h
[7] = tested on: HOP-62; assay: Cytotoxicity against Homo sapiens (human) HOP62 cells after 48 hr by SRB assay; assay type: functional; conditions: HOP-62, 48 h
[8] = tested on: SN12C; assay: Cytotoxicity against Homo sapiens (human) SN12C cells after 48 hr by SRB assay; assay type: functional
[9] = tested on: RPMI-8226; assay: Cytotoxicity against Homo sapiens (human) RPMI8226 cells after 48 hr by SRB assay; assay type: functional; conditions: RPMI-8226, 48 h
[10] = tested on: A498; assay: Cytotoxicity against Homo sapiens (human) A498 cells after 48 hr by SRB assay; assay type: functional; conditions: A498, 48 h
[11] = tested on: SF-539; assay: Cytotoxicity against Homo sapiens (human) SF539 cells after 48 hr by SRB assay; assay type: functional; conditions: SF-539, 48 h
[12] = Cytotoxicity against Homo sapiens (human) NSCLC cells assessed as cell growth at 10^-5 M after 48 hr by SRB assay relative to control; assay type: functional; conditions: read-out: Activity
[13] = Cytotoxicity against Homo sapiens (human) ovarian cancer cells assessed as cell growth at 10^-5 M after 48 hr by SRB assay relative to control; assay type: functional; conditions: Cancer cell lines, read-out: Activity
[14] = Cytotoxicity against Homo sapiens (human) melanoma cells assessed as cell growth at 10^-5 M after 48 hr by SRB assay relative to control; assay type: functional; conditions: read-out: Activity
[15] = Cytotoxicity against Homo sapiens (human) CNSC cells assessed as cell growth at 10^-5 M after 48 hr by SRB assay relative to control; assay type: functional; conditions: read-out: Activity
[16] = Cytotoxicity against Homo sapiens (human) colon cancer cells assessed as cell growth at 10^-5 M after 48 hr by SRB assay relative to control; assay type: functional; conditions: Cancer cell lines, read-out: Activity
[17] = Cytotoxicity against Homo sapiens (human) renal cancer cells assessed as cell growth at 10^-5 M after 48 hr by SRB assay relative to control; assay type: functional; conditions: Cancer cell lines, read-out: Activity
[18] = Cytotoxicity against Homo sapiens (human) breast cancer cells assessed as cell growth at 10^-5 M after 48 hr by SRB assay relative to control; assay type: functional; conditions: Cancer cell lines, read-out: Activity
[19] = Cytotoxicity against Homo sapiens (human) leukemia cells assessed as cell growth at 10^-5 M after 48 hr by SRB assay relative to control; assay type: functional; conditions: read-out: Activity
[20] = Cytotoxicity against Homo sapiens (human) prostate cancer cells assessed as cell growth at 10^-5 M after 48 hr by SRB assay relative to control; assay type: functional; conditions: Cancer cell lines, read-out: Activity

Compound: N#Cc1ccc(C(=O)Nc2nc3ccc(OC(F)(F)F)cc3s2)cc1
- inhibition [1]: inactive

Compound: COc1ccc2nc(NC(=O)Nc3ccc(C#N)cc3)sc2c1
- inhibition [1]: inactive

Compound: COc1ccc2nc(NC(=O)c3ccc(C#N)cc3)sc2c1
- inhibition [1]: inactive

Compound: COc1ccc(C(=O)Nc2nc3ccc(OC)cc3s2)cc1
- inhibition [1]: inactive

Compound: COc1ccc(C(=O)Nc2nc3ccc(OC(F)(F)F)cc3s2)cc1
- inhibition [1]: inactive

Compound: O=C(Nc1nc2ccc(OC(F)(F)F)cc2s1)c1ccc(F)cc1
- inhibition [1]: inactive

Compound: COc1ccc2nc(NC(=O)c3ccc(NC(C)=O)cc3)sc2c1
- inhibition [1]: inactive

Compound: O=c1[nH]cc(F)c(=O)[nH]1 [FLUOROURACIL]
- GI50 [2]: 79.4 nM
- GI50 [3]: 79400 nM
- GI50 [4]: 158 nM
- GI50 [5]: 15.8 nM
- GI50 [6]: 1580 nM
- GI50 [7]: 398 nM
- GI50 [8]: 501 nM
- GI50 [9]: 44.7 nM
- GI50 [10]: 398 nM
- GI50 [11]: 63.1 nM

Compound: O=C(Nc1nc2ccc(OC(F)(F)F)cc2s1)c1c(F)cccc1F
- inhibition [1]: inactive

Compound: COc1ccc2nc(NC(=O)Nc3c(F)cccc3F)sc2c1
- growth at 10 µM [12]: 99.2%
- growth at 10 µM [13]: 108%
- inhibition [1]: inactive
- growth at 10 µM [14]: 102%
- growth at 10 µM [15]: 104%
- growth at 10 µM [16]: 107%
- growth at 10 µM [17]: 97.9%
- growth at 10 µM [18]: 107%
- growth at 10 µM [19]: 91.2%
- growth at 10 µM [20]: 100%

Compound: COc1ccc(NC(=O)Nc2nc3ccc(OC(F)(F)F)cc3s2)cc1
- growth at 10 µM [12]: 95.8%
- growth at 10 µM [13]: 97.5%
- inhibition [1]: inactive
- growth at 10 µM [14]: 104%
- growth at 10 µM [15]: 103%
- growth at 10 µM [16]: 101%
- growth at 10 µM [17]: 99.4%
- growth at 10 µM [18]: 97.8%
- growth at 10 µM [19]: 87%
- growth at 10 µM [20]: 95.3%

Compound: CC(=O)Nc1ccc(C(=O)Nc2nc3ccc(OC(F)(F)F)cc3s2)cc1
- inhibition [1]: inactive

Compound: O=C(Nc1nc2ccc(OC(F)(F)F)cc2s1)Nc1c(F)cccc1F
- growth at 10 µM [12]: 77.6%
- growth at 10 µM [13]: 90.2%
- inhibition [1]: inactive
- growth at 10 µM [14]: 89.6%
- growth at 10 µM [15]: 96%
- growth at 10 µM [16]: 91.8%
- growth at 10 µM [17]: 89.4%
- growth at 10 µM [18]: 89.5%
- growth at 10 µM [19]: 64.4%
- growth at 10 µM [20]: 83.8%

Compound: COc1ccc(NC(=O)Nc2nc3ccc(OC)cc3s2)cc1
- inhibition [1]: inactive

Compound: COc1ccc2nc(NC(=O)c3c(F)cccc3F)sc2c1
- inhibition [1]: inactive

Compound: COc1ccc2nc(NC(=O)c3ccc(F)cc3)sc2c1
- inhibition [1]: inactive

Compound: COc1ccc2nc(NC(=O)Nc3ccc(F)cc3)sc2c1
- inhibition [1]: inactive

— ChEMBL document CHEMBL3046368, “Synthesis of benzothiazole derivatives and their biological evaluation as anticancer agents” (2012)
